Laboratory results taken from patent US8664261B2, “Organic compounds having cooling properties” (Givaudan S.A., priority 2009, dated 2014).

Experiments:
[1] = test system: panelists; assay: Cooling intensity: panelists taste aqueous solutions, compared with menthol at 2 ppm; format: in vivo; details: aqueous solution with cooling intensity similar to or slightly higher than a solution of menthol at 2 ppm; tasted by small group of panelists
[2] = test system: panelists; assay: Application in toothpaste: duration of perceived cooling sensation after brushing; format: in vivo; details: 0.10 g of 10% ethanol solution of compound + 0.03 g saccharin in 9.96 g opaque toothgel base; teeth brushed, mouth rinsed with water
Method: 0.10 g of a 10% solution in ethanol of a compound of formula (I) listed in Table 4 below and 0.03 g saccharin were mixed in 9.96 g of an opaque toothgel base. A piece of the thus prepared toothpaste was put on a toothbrush and a panelist's teeth were brushed. The mouth was rinsed with water and the water spat out. A long lasting cooling sensation was felt by the panelist in all areas of the mouth. The cooling sensation was perceived for up to 60 min (see Table 5).

Row | Structure (SMILES) | Concentration [1] [ppm] | Perceived cooling sensation [2] [min]
1 | CCNC(=O)C1CC(C)CCC1C(C)C (stereo not drawn) [N-ethyl p-menthanecarboxamide, reference compound] | 1.5 | –
2 | CC(Cc1ccsc1)NC(=O)[C@@H]1C[C@H](C)CC[C@H]1C(C)C (stereo partly drawn) [Example 2M, (1R,2S,5R)-2-isopropyl-5-methyl-N-(1-(thiophen-3-yl)propan-2-yl)cyclohexane-carboxamide] | 0.002 | 40
3 | Cc1[nH]c2ccccc2c1CCNC(=O)[C@@H]1C[C@H](C)CC[C@H]1C(C)C [Example 2I, (1R,2S,5R)-2-isopropyl-5-methyl-N-(2-(2-methyl-1H-indol-3-yl)ethyl)cyclohexane-carboxamide] | – | 60
4 | CC(C)[C@@H]1CC[C@@H](C)C[C@H]1C(=O)NCCn1ccc2ccccc21 [Example 2J, (1R,2S,5R)-N-(2-(1H-indol-1-yl)ethyl)-2-isopropyl-5-methylcyclohexanecarboxamide] | 0.002 | –
5 | CC(C)[C@@H]1CC[C@@H](C)C[C@H]1C(=O)NCCc1ncc[nH]1 [Example 2H, (1R,2S,5R)-N-(2-(1H-imidazol-2-yl)ethyl)-2-isopropyl-5-methlycyclohexane-carboxamide] | 0.2 | 40
6 | CC(C)[C@@H]1CC[C@@H](C)C[C@H]1C(=O)NCCc1ccccn1 [(1R,2S,5R)-2-isopropyl-5-methyl-N-(2-(pyridin-2-yl)ethyl)cyclohexanecarboxamide, reference compound] | 0.02 | –
7 | CC(C)[C@@H]1CC[C@@H](C)C[C@H]1C(=O)Nc1ccc(CC#N)cc1 [(1R,2S,5R)-N-(4-(cyanomethyl)phenyl)-2-isopropyl-5-methylcyclohexanecarboxamide, reference compound] | 0.2 | –
8 | CC(Cc1cccnc1)NC(=O)[C@@H]1C[C@H](C)CC[C@H]1C(C)C (stereo partly drawn) [Example 1, (1R,2S,5R)-2-isopropyl-5-methyl-N-(1-(pyridin-3-yl)propan-2-yl)cyclohexanecarboxamide] | 0.01 | 30
9 | CC1CCC(C(C)C)C(O)C1 (stereo not drawn) [I-Menthol, reference compound] | 2.0 | –
